Test results taken from PubChem BioAssay (NCI).
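Values below derive from 48-hour exposures of cells grown in 96-well plates, with endpoints linearly interpolated between the two concentrations bracketing the appropriate inhibition level. TGI marks complete inhibition of growth.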

Legend:
Test in all cases: inhibition of tumour cell growth, NCI panel, 48 h
786-0 renal = tested on: 786-0 renal
A498 renal = tested on: A498 renal
ACHN renal = tested on: ACHN renal
EKVX NSCLC = tested on: EKVX NSCLC
HCT-116 colon = tested on: HCT-116 colon
IGROV1 ovarian = tested on: IGROV1 ovarian
K-562 leukemia = tested on: K-562 leukemia
KM12 colon = tested on: KM12 colon
MCF7 breast = tested on: MCF7 breast
NCI-H226 lung = tested on: NCI-H226 lung
NCI-H23 lung = tested on: NCI-H23 lung
NCI-H460 lung = tested on: NCI-H460 lung
OVCAR-8 ovarian = tested on: OVCAR-8 ovarian
RPMI-8226 leukemia = tested on: RPMI-8226 leukemia
SF-295 CNS = tested on: SF-295 CNS
SF-539 CNS = tested on: SF-539 CNS
SR leukemia = tested on: SR leukemia
UACC-62 melanoma = tested on: UACC-62 melanoma
UO-31 renal = tested on: UO-31 renal
NCI-H522 lung = tested on: NCI-H522 lung

Measured: TGI

C#CC(C)(C)OC(=O)C(=[N+]=[N-])C(C)=O
not listed: NCI-H522 lung
> 10 µM: all other assays above

CCOC(=O)c1c(NC(=O)OC)c(C#N)c2n1CCCCC2
not listed: NCI-H522 lung
> 100 µM: all other assays above

CCC1CCc2c(c(=O)oc3c2cc(OC)c2cccc(OC)c23)C1 (stereo unspecified)
not listed: MCF7 breast
> 100 µM: all other assays above

CCCCCC(=O)CCCCCCCC(O)CC(=O)OCC (stereo unspecified)
not listed: EKVX NSCLC | SF-295 CNS | UACC-62 melanoma
> 100 µM: all other assays above

COc1ccc(-c2nc(-c3cc4c(ccc5ccccc54)oc3=O)cs2)cc1
82 µM: 786-0 renal
not listed: A498 renal | NCI-H23 lung | OVCAR-8 ovarian | NCI-H522 lung
> 100 µM: all other assays above

CC(=O)O[C@H]1CCC2[C@@H]3CCC4Nc5oncc5C[C@]4(C)C3CC[C@@]21C (stereo partly specified)
9.84 µM: SF-539 CNS
not listed: EKVX NSCLC | UACC-62 melanoma | NCI-H522 lung
> 10 µM: all other assays above

COc1cc(N(CCC#N)CCC#N)ccc1/C(N=Nc1ccccc1C)=N\NC(=O)c1ccc(C)cc1
not listed: A498 renal | ACHN renal | MCF7 breast | RPMI-8226 leukemia | SF-539 CNS | SR leukemia
> 100 µM: all other assays above
